Results on eight molecules are retold here after patent publication US12570988B2, “Aptamers that bind thiamine analogs and derivatives” (MeiraGTx Gene Regulation Limited, priority 2020, dated 2026).

The subject of data set [1] is riboswitch 15D10. Kind of data set: Luciferase reporter with 15D10 riboswitch (Luci-15D10) in HEK 293 cells. Type of data set: cell-based, human. To be noted: HEK 293 cells; for effect on luciferase expression from Luci-15D10: FIG. 9A, 9C; for fold induction at 50 µM: Homo sapiens, HEK293, 24 h, Table 2, read-out: Fold increase in riboswitch 15D10-regulated luciferase expression, HEK. An outline of the steps: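 Cells transfected with riboswitch-luciferase plasmid; 4 h later medium replaced with TPP or thiamine analogs (fursultiamine, prosultiamine, bisbentiamine, beclotiamine, sulbutiamine) as inducers.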
Background: In a reporter assay the amount or activity of a reporter protein is the signal.

The subject of data set [2] is riboswitch 15D10. Put plainly: Luci-15D10 luciferase reporter in ARPE-19 cells. As to conditions: FIG. 9E. Type of data set: cell-based, human.
In data set [3] the test system is riboswitch 15D10. Kind of data set: Luciferase reporter with 15D10 riboswitch (Luci-15D10) in AML12 cells. It counts as cell-based, mouse. To be noted: for relative potency in inducing luciferase expression: AML 12 cells, compared with fursultiamine or within groups; for fold induction at 50 µM: Mus musculus, AML12, 24 h, Table 2, read-out: Fold increase in riboswitch 15D10-regulated luciferase expression, AML; for fold induction at 50 µM / luciferase regulation in response to ligand, riboswitch 15D10: AML12 cells; for luciferase regulation in response to ligand, riboswitch 15D10: FIG. 6B.

Data set [4] deals with riboswitch 15D10. Put plainly: Luci-15D10 luciferase reporter in Hep G2 cells. As to conditions: potency compared at 12.5 μM, FIG. 9F. It counts as cell-based, human.
Data set [5] deals with riboswitch TPPm (E. coli thiM TPP aptamer). Kind of data set: Luciferase reporter with TPPm riboswitch in HEK 293 cells. Type of data set: cell-based, human. To be noted: FIG. 1. The text has this: (§1) Riboswitch constructs: Aptamers were synthesized by Integrated DNA Technologies, Inc. and Golden Gate cloning strategy (New England Biolabs, NEB) was used to clone the synthesized aptamer sequences into intron-exon-intron cassette to replace the guanine aptamer in the G17 riboswitch cassette (see SEQ ID NO: 15 recited in WO 2016/126747, which is incorporated herein in its entirety) with a TPP aptamer from the Alishewanella tabrizica thiC gene (Microbiol Res. 2017 January; 195:71-80) or a TPP aptamer from the Escherichia coli thiM gene (Structure. 2006 September; 14(9):1459-68), generating riboswitch TPPz and TPPm, respectively.
(§2) Transfection: 3.5×10^4 human embryonic kidney (HEK) 293 cells were plated in a 96-well flat bottom plate the day before transfection. Plasmid DNA (500 ng) was added to a tube or a 96-well U-bottom plate. Separately, TransIT-293 reagent (Mirus; 1.4 μL) was added to 50 μL Optimem I media (Life Technologies) and allowed to sit for 5 minutes at room temperature (RT). Then, 50 μL of this diluted transfection reagent was added to the DNA, mixed, and incubated at RT for 20 min. Finally, 7 μL of this solution was added to a well of cells in the 96-well plate. Four hours after transfection, medium containing transfection solution was replaced by medium containing either TPP, fursultiamine, prosultiamine, bisbentiamine, beclotiamine hydrochloride, or sulbutiamine as aptamer inducers.
(§3) Firefly luciferase assay of cultured cells: Twenty-four hours after media change, plates were removed from the incubator, and equilibrated to RT for several minutes on a lab bench, then aspirated. Glo-lysis buffer (Promega, 100 μL, RT) was added, and the plates allowed to remain at RT for at least 5 minutes. Then, the well contents were mixed by 50 μL trituration, and 20 μL of each sample was mixed with 20 μL of bright-glo reagent (Promega) that had been diluted to 10% in glo-lysis buffer. 96 wells were spaced on an opaque white 384-well plate. Following a 5 min incubation at RT, luminescence was measured using a Tecan machine with 500 ms read time. The luciferase activity was expressed as mean arbitrary light units (ALU)±S.D., and fold induction was calculated as the quotient of the luciferase activity obtained from cells with TPP or analog treatment divided by the luciferase activity obtained from cells without TPP or analog treatment.

In data set [6] the test system is riboswitch TPPz (A. tabrizica thiC TPP aptamer). Kind of data set: Luciferase reporter with TPPz riboswitch in HEK 293 cells. Type of data set: cell-based, human. As to conditions: FIG. 1.
From the text: as §1, §2, §3

Data set [7] relates to riboswitch comprising aptamer 15A5. Put plainly: Luciferase reporter with 15A5 riboswitch in AML12 cells. Type of data set: cell-based, mouse. To be noted: FIG. 6B.
For a further data set, the system named is riboswitch 3H4. Kind of data set: In vivo bioluminescence imaging, mice given AAV luci-3H4. Also noted: species or system Balb/c mice. The text has this: (§4) AAV2.8 viral particle production: The AAV2.8 particles used for the transfection of mice comprised a viral genome derived from AAV2 and a capsid derived from AAV8. The luciferase gene containing an intron-exon-intron cassette with (1) a non-regulatable riboswitch without aptamer (“luci-Con1”, SEQ ID NO:90), (2) a riboswitch cassette comprising aptamer 3H4 (“luci-3H4”, SEQ ID NO:91), or (3) a riboswitch cassette comprising aptamer 6B4 (“luci-6B4”, SEQ ID NO:92), respectively, was cloned into an AAV2 plasmid vector. Expression of the luciferase gene was controlled by a CASI promoter, which includes CMV and ubiquitin C enhancer elements and the chicken β-actin promoter. The viral vector was packaged into AAV8 capsid and produced following manufacture's protocol (Vigene Biosciences).
(§5) Animal study: Male Balb/c mice received a single tail vein injection of 1.0×10^11 or 2.5×10^11 genome copies of the receptive AAV2.8 viral particle. Twenty-eight days after AAV vector delivery, mice were treated intraperitoneally (IP.) with 50 mg/kg prosultiamine. Luciferase activity was measured the day prior to drug dosing, as well as 6 h, 24 h, 48 h and 72 h after drug dosing. After the first administration of prosultiamine, the mice were subjected to three additional rounds of dosing and imaging cycles as follows: Day 36 (after AAV administration):100 mg/kg; day 43: 200 mg/kg; and day 51: 400 mg/kg.
(§6) Noninvasive live animal bioluminescence imaging: Before imaging, mice were anesthetized with 2% isoflurane, and injected with 150 mg/kg body weight of luciferin. At the indicated time point post drug dosing, images were taken within 2 to 5 minutes after luciferin injection using a Bruker Xtreme system. Luciferase activity was expressed as mean photon/s±S.D. (n=5). The fold induction of luciferase gene expression was calculated as the quotient of photon/s obtained from mice treated with prosultiamine divided by the value obtained from mice the day before prosultiamine treatment.

The test system of another data set is riboswitch 6B4. Kind of data set: In vivo bioluminescence imaging, mice given AAV luci-6B4. Also noted: species or system Balb/c mice.
From the text: as §4, §5, §6

Data set [8] concerns luciferase expression in HEK 293 cells. Put plainly: Screen of aptamer libraries A1-A3 for gene regulation activity with fursultiamine. It counts as cell-based, human. As to conditions: 50 μM fursultiamine, FIG. 4A. On the procedure: Three aptamer libraries A1, A2 and A3, were generated by randomizing nucleotides at 6 positions in, or adjacent to, regions J4-5, J2-4 and J3-2, respectively (see FIG. 3). Single bacterial colonies were picked and plasmids containing riboswitch constructs were screened in HEK 293 cells for improved gene regulation activity in response to 50 μM fursultiamine as compared to riboswitch 14G4. […] These riboswitches comprising re-engineered aptamer sequences also lead to significant enhancements of target gene expression in other cells types, including alpha mouse liver 12 (AML12), C2C12 (murine myoblast cell line), and adult retinal pigment epithelial cell line-19 (ARPE-19) (see FIG. 4B).

Where [9] appears, read: 50 mg/kg IP single dose, six hours after dosing.
Where [10] appears, read: 50 mg/kg and 100 mg/kg IP doses.
[11] abbreviates: 200 mg/kg and 400 mg/kg IP doses.

As for `C/C(=C(\CCO)SCOC(=O)C(C)(C)C)N(C=O)Cc1cnc(C)nc1N` [Compound M10, (Z)-((2-(N-((4-Amino-2-methylpyrimidin-5-yl)methyl)formamido)-5-hydroxypent-2-en-3-yl)thio)methyl pivalate], in the data set with riboswitch 15D10 [1], the “effect on luciferase expression from Luci-15D10” value (“effect … from Luci-15D10” below) is “increased”. In the data set with riboswitch 15D10 [2], the “activity in increasing riboswitch 15D10-regulated luciferase expression” value is “equivalent potency to fursultaimine”. For the same molecule, the “relative potency in inducing luciferase expression” value (from here on “relative potency”) in the data set with riboswitch 15D10 [3] is given as “more potent than fursultiamine”.

`C/C(=C(\CCO)SCOC(=O)C12CC3CC(CC(C3)C1)C2)N(C=O)Cc1cnc(C)nc1N` [Compound M19, (((Z)-2-(N-((4-Amino-2-methylpyrimidin-5-yl)methyl)formamido)-5-hydroxypent-2-en-3-yl)thio)methyl (3r,5r,7r)-adamantane-1-carboxylate]: the “fold increase in luciferase expression” value with riboswitch 15D10 [1] (12.5 μM) came to 168.7 fold. For the same molecule, the “effect … from Luci-15D10” value in the data set with riboswitch 15D10 [1] is recorded as “increased”. The “relative potency” value in the data set with riboswitch 15D10 [1] (compared with fursultiamine or within Formula V/VI groups) is reported as “more potent”; in the data set with riboswitch 15D10 [3] it was “more potent than fursultiamine”. For the same molecule, the results for the fold induction at 50 µM in the data set on riboswitch 15D10 [1] and in the data set with riboswitch 15D10 [3] were 676 and 330, respectively. In addition, the “activity in increasing riboswitch 15D10-regulated luciferase expression” value in the data set with riboswitch 15D10 [2] is on record as “equivalent potency to fursultaimine”.

As to `C/C(=C(\CCO)SCOC(=O)c1ccccc1)N(C=O)Cc1cnc(C)nc1N` [Compound M21, (Z)-((2-(N-((4-Amino-2-methylpyrimidin-5-yl)methyl)formamido)-5-hydroxypent-2-en-3-yl)thio)methyl benzoate], in the data set on riboswitch 15D10 [1], the “effect … from Luci-15D10” value is listed as “increased” and the fold induction at 50 µM is 618. The “activity in increasing riboswitch 15D10-regulated luciferase expression” value in the data set with riboswitch 15D10 [2] is listed as “equivalent potency to fursultaimine”. Moreover, in the data set on riboswitch 15D10 [3], the “relative potency” value was “more potent than fursultiamine” and the fold induction at 50 µM came to 229.

`COc1ccc(C(=O)S/C(CCOP(=O)(O)O)=C(/C)N(C=O)Cc2cnc(C)nc2N)cc1` [Compound M32, (Z)—S-(2-(N-((4-Amino-2-methylpyrimidin-5-yl)methyl)formamido)-5-(phosphonooxy)pent-2-en-3-yl) 4-methoxybenzothioate]: the “activity in increasing riboswitch 15D10-regulated luciferase expression” value with riboswitch 15D10 [4] and in the data set with riboswitch 15D10 [2] was “no activity” throughout. Moreover, the “effect … from Luci-15D10” value in the data set with riboswitch 15D10 [1] is listed as “no effect on luciferase expression”.

For `Cc1ncc(C[n+]2csc(CCO[P@](=O)(O)OP(=O)(O)O)c2C)c(N)n1` [TPP, thiamine pyrophosphate], the “effect on luciferase expression, riboswitch TPPm” value in [5] is recorded as “regulate luciferase expression”. Moreover, the “effect on luciferase expression, riboswitch TPPz” value in [6] is “regulate luciferase expression”. For the same molecule, the “luciferase regulation in response to ligand, riboswitch 15A5” value (“luciferase regulation … riboswitch 15A5” for short) in data set [7] is listed as “respond very poorly”. Moreover, the “luciferase regulation in response to ligand, riboswitch 15D10” value (from here on “luciferase regulation … riboswitch 15D10”) in the data set on riboswitch 15D10 [3] is listed as “respond very poorly”.

With `C/C(=C(\CCOP(=O)(O)O)SC(=O)c1ccccc1)N(C=O)Cc1cnc(C)nc1N` [benfotiamine, reference compound], the “activity in increasing riboswitch 15D10-regulated luciferase expression” value with riboswitch 15D10 [4] and in the data set on riboswitch 15D10 [2] was “no activity” throughout. In addition, the “effect … from Luci-15D10” value in the data set with riboswitch 15D10 [1] is “no effect on luciferase expression”. Also, the “luciferase regulation … riboswitch 15A5” value in [7] is recorded as “robustly regulate luciferase expression”. Moreover, in the data set with riboswitch 15D10 [3], the “luciferase regulation … riboswitch 15D10” value is recorded as “robustly regulate luciferase expression”.

In the case of `CCCSS/C(CCO)=C(/C)N(C=O)Cc1cnc(C)nc1N` [prosultiamine], in data set [5], the “effect on luciferase expression, riboswitch TPPm” value is listed as “induce luciferase expression”. The “luciferase activity in mice, riboswitch 3H4” value with riboswitch 3H4 (setting [9]) was “significantly increased”. In addition, the “time at which induced luciferase activity attenuated to pre-treatment level” value in the data set with riboswitch 3H4 (setting [10]) and in the data set with riboswitch 6B4 (setting [10]) was 24 h throughout. The “time induced luciferase activity remained” value in the data set on riboswitch 3H4 (setting [11]) and in the data set with riboswitch 6B4 (setting [11]) was not below 48 h in each case. Also, the “effect on luciferase expression, riboswitch TPPz” value in data set [6] was “induce luciferase expression”. The “luciferase regulation … riboswitch 15A5” value in [7] is “robustly regulate luciferase expression”. Also, the “luciferase activity in mice, riboswitch 6B4” value with riboswitch 6B4 (setting [9]) is “significantly increased”. In addition, in the data set on riboswitch 15D10 [3], the “luciferase regulation … riboswitch 15D10” value is recorded as “robustly regulate luciferase expression”.

B1: 6G12: re-engineered aptamer, encoding sequence SEQ ID NO:17 (nucleic acid)
DNA: ACAGGGGTCCGGCCTTTTCATTTGGCGCCGGTGAGAGCACACCCTTTGGACCTGTTTACGGATAATGCCGCCGCAGGGAGT
modifications: expressed or natural sequence
Take B1: the “fursultiamine-dependent induction compared to parent construct 14G4” value in [8] was “increase in fursultiamine-dependent induction”.
